Laboratory results from patent publication US5580871A, “4-Heteroaryl- 1,4-dihydropyridine compounds with calcium agonist and alpha1 -antagonist activity” (The Dupont Merck Pharmaceutical Company, priority 1995, dated 1996).

Key:
guinea pig left atria = assay: Positive inotropic effect in guinea pig left atria; conditions: Cavia porcellus; for EC50: concentration that increases developed tension (DT) by 50% above the control DT, left atria paced at 2 Hz, 37° C.; for Emax: ratio of the maximum effect of the test compound to that of Bay K8644, read-out: Intrinsic Activity
Method: Guinea pigs are killed by cervical dislocation. The left atria are removed and mounted at 1 gm resting tension in tissue baths containing oxygenated Krebs bicarbonate solution which is kept at 37° C. The left atria are electrically paced at 2 Hz with square wave pulses of 1 msec duration. The voltage is set at 1.5×threshold level.
After a one hour equilibration period, control values for developed tension (DT, gm) are recorded. Test compounds are then added to the baths, in a cumulative manner to a maximum concentration of 10^-4, to obtain a concentration-response curve. Treatment values of DT are obtained after the drug effect has reached a plateau and the exposure time for each concentration is 5-8 minutes. Percent change of the treatment value from the control value is calculated at each concentration of the test compound.

[1] = tested on: influx of calcium ions into cells; conditions: background, cited from earlier work
Ca^2+ channel = target: T1, Ca^2+ channel (Rattus norvegicus, UniProt P22002); assay: [3H]-Nitrendipine binding assay (affinity for calcium channels); conditions: rat cardiac microsomes; 0.5 nM [3H]-nitrendipine, 60 min, 25° C.
T1 construct: rat cardiac microsomes (source of Ca^2+ channels); from tissue; host or cells: rat cardiac microsomes
Method: [^3 H]-Nitrendipine binding assay was carried out according to the method described by G. T. Bolger, et al., Biochem. Biophys. Res. Comm., 104, 1604-1609, (1982). The reaction mixture contained rat cardiac microsomes (source of Ca^2+ channels), 0.5 nM [^3 H]-nitrendipine with or without potential displacer in Tris buffer. The mixture was incubated for 60 minutes at 25° C. and subsequently terminated by rapid filtration through a glass fiber-filter. Membrane-bound [^3 H]-nitrendipine trapped in the filter was quantitated by scintillation counting. The inhibitory concentration (IC50) of potential displacer which gives 50% displacement of the total specifically bound [^3 H]-nitrendipine is presented as a measure of the affinity of such compound for the Ca^2+ channel.

alpha1-adrenoceptor = assay: [3H]-Prazosin binding assay (affinity for alpha1-adrenoceptors); conditions: partially purified rat brain membranes; 0.2 nM [3H]-prazosin, 60 min, 25° C.
Method: The [^3 H]-prazosin binding assay was carried out according to the method described by Timmermans, P. B. M. W. M., Schoop, A. M. C., and Van Zwieten, P. A., Biochem. Pharmacol., 31, 899-905, (1982). The reaction mixture contained partially purified rat brain membranes (source of alpha1 -adrenoceptors), 0.2 nM [^3 H]-prazosin with or without potential displacer in Tris buffer. The mixture was incubated for 60 minutes at 25° C. and subsequently terminated by rapid filtration through glass fiber-filter. Receptor-bound [^3 H]-prazosin trapped in the filter was quantitated by scintillation counting. The inhibitory concentration (IC50) of potential displacer which gives 50% displacement of the total specifically bound [^3 H]-prazosin is presented as a measure of the affinity of such compound for the alpha1 -adrenoceptor.

T1 sequence (P22002 whole entry, other chains not shown): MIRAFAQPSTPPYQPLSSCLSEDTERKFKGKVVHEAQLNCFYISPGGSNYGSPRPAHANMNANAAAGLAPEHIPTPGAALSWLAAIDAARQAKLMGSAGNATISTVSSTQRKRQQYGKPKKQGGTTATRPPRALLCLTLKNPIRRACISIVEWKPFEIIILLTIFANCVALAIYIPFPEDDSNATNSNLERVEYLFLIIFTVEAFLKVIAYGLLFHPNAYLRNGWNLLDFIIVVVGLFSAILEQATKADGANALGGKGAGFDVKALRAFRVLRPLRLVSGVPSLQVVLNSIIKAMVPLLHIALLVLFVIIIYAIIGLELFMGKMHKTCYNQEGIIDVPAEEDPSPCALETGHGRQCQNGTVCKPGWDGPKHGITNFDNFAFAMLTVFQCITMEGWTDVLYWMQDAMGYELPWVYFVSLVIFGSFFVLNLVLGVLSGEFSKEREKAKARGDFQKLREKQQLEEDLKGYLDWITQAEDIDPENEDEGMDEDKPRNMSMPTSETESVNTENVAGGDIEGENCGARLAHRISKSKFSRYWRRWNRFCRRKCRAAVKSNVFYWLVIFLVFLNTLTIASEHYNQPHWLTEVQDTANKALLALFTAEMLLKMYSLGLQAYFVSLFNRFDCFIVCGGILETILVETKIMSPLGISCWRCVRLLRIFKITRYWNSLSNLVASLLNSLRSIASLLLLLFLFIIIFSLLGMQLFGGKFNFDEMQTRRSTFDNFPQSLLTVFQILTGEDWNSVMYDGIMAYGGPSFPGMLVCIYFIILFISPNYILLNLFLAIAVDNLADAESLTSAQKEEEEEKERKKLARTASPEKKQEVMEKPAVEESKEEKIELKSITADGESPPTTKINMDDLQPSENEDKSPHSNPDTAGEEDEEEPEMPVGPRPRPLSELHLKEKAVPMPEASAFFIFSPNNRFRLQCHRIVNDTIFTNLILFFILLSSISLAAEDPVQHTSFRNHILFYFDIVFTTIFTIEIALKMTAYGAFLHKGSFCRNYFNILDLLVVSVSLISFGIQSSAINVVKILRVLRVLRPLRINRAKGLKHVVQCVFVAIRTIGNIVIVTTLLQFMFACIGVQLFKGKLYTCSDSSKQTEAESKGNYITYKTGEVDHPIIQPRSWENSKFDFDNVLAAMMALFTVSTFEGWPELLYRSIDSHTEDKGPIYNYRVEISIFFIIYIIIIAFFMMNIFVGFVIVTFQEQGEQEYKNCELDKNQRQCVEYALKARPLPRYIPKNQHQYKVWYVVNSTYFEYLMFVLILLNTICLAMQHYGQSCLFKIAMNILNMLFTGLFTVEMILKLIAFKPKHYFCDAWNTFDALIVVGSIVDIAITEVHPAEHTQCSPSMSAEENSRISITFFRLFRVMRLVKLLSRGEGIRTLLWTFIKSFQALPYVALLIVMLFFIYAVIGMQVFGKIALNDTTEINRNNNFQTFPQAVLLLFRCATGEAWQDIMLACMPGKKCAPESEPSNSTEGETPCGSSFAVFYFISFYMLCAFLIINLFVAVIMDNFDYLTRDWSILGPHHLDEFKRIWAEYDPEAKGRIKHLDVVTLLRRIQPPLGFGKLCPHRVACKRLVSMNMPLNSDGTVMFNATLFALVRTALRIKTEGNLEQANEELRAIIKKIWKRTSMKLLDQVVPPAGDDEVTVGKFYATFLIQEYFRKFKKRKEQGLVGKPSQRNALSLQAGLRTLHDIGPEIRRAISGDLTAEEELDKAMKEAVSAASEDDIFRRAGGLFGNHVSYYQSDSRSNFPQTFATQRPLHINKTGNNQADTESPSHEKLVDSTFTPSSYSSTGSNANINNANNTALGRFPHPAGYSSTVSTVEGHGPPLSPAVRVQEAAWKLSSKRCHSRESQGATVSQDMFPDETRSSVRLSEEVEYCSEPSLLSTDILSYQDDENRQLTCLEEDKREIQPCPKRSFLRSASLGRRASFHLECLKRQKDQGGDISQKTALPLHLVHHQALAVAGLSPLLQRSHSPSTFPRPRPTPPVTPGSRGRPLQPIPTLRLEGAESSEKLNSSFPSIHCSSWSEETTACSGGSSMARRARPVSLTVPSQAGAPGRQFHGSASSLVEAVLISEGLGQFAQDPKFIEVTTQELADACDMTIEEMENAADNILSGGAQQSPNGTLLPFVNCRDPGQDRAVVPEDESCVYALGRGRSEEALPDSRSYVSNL
T1 sequence (P54290 25-944 partner limits assumed, other chains not shown): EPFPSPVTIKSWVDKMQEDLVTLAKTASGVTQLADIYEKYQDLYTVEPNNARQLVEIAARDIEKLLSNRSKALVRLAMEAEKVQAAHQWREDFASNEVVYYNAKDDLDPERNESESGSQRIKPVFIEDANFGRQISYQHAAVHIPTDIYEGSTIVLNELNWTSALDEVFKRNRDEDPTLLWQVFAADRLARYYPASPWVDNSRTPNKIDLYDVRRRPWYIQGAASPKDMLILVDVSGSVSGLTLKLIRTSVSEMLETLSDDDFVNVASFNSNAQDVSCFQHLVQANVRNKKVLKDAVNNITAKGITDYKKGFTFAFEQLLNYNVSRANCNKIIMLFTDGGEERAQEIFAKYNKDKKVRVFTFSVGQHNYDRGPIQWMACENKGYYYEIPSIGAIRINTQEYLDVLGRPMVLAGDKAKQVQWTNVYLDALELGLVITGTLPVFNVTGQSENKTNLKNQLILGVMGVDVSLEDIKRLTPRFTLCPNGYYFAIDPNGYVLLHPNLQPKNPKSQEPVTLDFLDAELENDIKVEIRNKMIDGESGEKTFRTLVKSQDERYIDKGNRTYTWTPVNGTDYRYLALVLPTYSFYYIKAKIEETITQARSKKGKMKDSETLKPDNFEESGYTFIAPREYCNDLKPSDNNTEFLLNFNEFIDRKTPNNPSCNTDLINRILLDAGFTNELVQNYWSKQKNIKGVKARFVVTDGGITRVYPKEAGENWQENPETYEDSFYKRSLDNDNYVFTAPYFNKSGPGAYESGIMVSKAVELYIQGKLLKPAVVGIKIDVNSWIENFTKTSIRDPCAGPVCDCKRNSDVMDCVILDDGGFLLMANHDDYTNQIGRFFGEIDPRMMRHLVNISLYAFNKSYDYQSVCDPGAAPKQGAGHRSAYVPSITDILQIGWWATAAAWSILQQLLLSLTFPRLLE
T1 sequence (P54290 945-1091 partner limits assumed, other chains not shown): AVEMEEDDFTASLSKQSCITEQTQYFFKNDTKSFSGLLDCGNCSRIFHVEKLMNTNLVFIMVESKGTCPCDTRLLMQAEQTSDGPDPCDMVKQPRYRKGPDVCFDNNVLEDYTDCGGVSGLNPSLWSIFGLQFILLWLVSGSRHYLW

Row | SMILES | EC50 (guinea pig left atria) | IC50 (Ca^2+ channel) | IC50 (alpha1-adrenoceptor) | Emax (guinea pig left atria) | calcium influx, inotropic and vascular effects ([1]; literature) | potency as a calcium agonist relative to CGP 28392 ([1]; literature) | coronary vasoconstriction ([1]; not useful as a cardiotonic)
1 | COc1ccccc1N1CCN(CCCCOC(=O)C2=C(C)NC(C)=C([N+](=O)[O-])C2c2ccco2)CC1 (stereo not shown) [Example 69] | 62 µM | 2 µM | 0.035 µM | 60% |  |  | 
2 | CC1=C(C(=O)OCCCCN2CCN(c3ncccn3)CC2)C(c2ccco2)C([N+](=O)[O-])=C(C)N1 (stereo not shown) [Example 70, 4-(2-Furanyl)-1,4-dihydro-2,6-dimethyl-5-nitro-3-pyridinecarboxylic acid, {4-[4-(2-pyrimidinyl)-1-piperazinyl]butyl} ester] | 5 µM | 2 µM | 0.84 µM | 132% |  |  | 
3 | COc1ccccc1N1CCN(CCCCOC(=O)C2=C(C)NC(C)=C([N+](=O)[O-])C2c2ccsc2)CC1 (stereo not shown) [Example 71] |  | 1.7 µM | 0.078 µM | 40% |  |  | 
4 | CC1=C(C(=O)OCCN2CCN(c3ncccn3)CC2)C(c2cccs2)C([N+](=O)[O-])=C(C)N1 (stereo not shown) [Example 73] | 0.98 µM | 2.4 µM | 4.9 µM | 84% |  |  | 
5 | CC1=C(C(=O)OCCN2CCN(c3ncccn3)CC2)C(c2cccc3nonc23)C([N+](=O)[O-])=C(C)N1 (stereo not shown) [Example 76] | 0.056 µM | 0.085 µM | 17 µM | 156% |  |  | 
6 | COc1ccccc1N1CCN(CCOC(=O)C2=C(C)NC(C)=C([N+](=O)[O-])C2c2cccn2C)CC1 (stereo not shown) [Example 77, 1,4-Dihydro-2,6-dimethyl-4-(1-methyl-1H-pyrrol-2-yl)-5-nitro-3-pyridinecarboxylic acid, {2-[4-(2-methoxyphenyl)-1-piperazinyl]ethyl} ester] | 0.23 µM | 1.1 µM | 0.11 µM | 240% |  |  | 

Further compounds by falling EC50 (guinea pig left atria), results first:

Row | EC50 (guinea pig left atria) | IC50 (Ca^2+ channel) | IC50 (alpha1-adrenoceptor) | SMILES | Emax (guinea pig left atria) | calcium influx, inotropic and vascular effects ([1]; literature) | potency as a calcium agonist relative to CGP 28392 ([1]; literature) | coronary vasoconstriction ([1]; not useful as a cardiotonic)
7 | 12 µM | 1.6 µM | 1 µM | CC1=C(C(=O)OCCCCN2CCN(c3ncccn3)CC2)C(c2ccsc2)C([N+](=O)[O-])=C(C)N1 (stereo not shown) [Example 72] | 70% |  |  | 
8 | 0.58 µM | 1.7 µM | 3.3 µM | CC1=C(C(=O)OCCN2CCN(c3ncccn3)CC2)C(c2cccn2C)C([N+](=O)[O-])=C(C)N1 (stereo not shown) [Example 78, 1,4-Dihydro-2,6-dimethyl-4-(1-methyl-1H-pyrrol-2-yl)-5-nitro-3-pyridinecarboxylic acid, {2-[4-(2-pyrimidinyl)-1-piperazinyl]ethyl} ester] | 231% |  |  | 
9 | 0.4 µM | 0.085 µM | 0.47 µM | COc1ccccc1N1CCN(CCOC(=O)C2=C(C)NC(C)=C([N+](=O)[O-])C2c2cccc3nonc23)CC1 (stereo not shown) [Example 75] | 82% |  |  | 
10 | 0.15 µM |  |  | COC(=O)C1=C(C)NC(C)=C([N+](=O)[O-])C1c1ccccc1C(F)(F)F (stereo not shown) [Bay K8644] | 100% | promote an influx of calcium ions, into cells thereby producing positive inotropic and vasoconstrictor effects | more than ten times as potent as CGP 28392 as a calcium agonist | coronary vasoconstricting properties
